Laboratory results taken from PubChem BioAssay (NCI).
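48-hour exposure; five concentrations; linearly interpolated endpoints. GI50 marks 50% less growth. TGI is the concentration that stops growth completely.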

Key:
Assay in all cases: NCI-60 cell line screen, 48 h
[1] = test system: RPMI-8226 leukemia
[2] = test system: M14 melanoma
[3] = test system: CCRF-CEM leukemia
[4] = test system: UACC-257 melanoma
[5] = test system: SK-MEL-5 melanoma
[6] = test system: NCI/ADR-RES ovarian
[7] = test system: SK-MEL-2 melanoma
[8] = test system: SNB-19 CNS
[9] = test system: MCF7 breast
[10] = test system: UACC-62 melanoma
[11] = test system: HCT-15 colon
[12] = test system: SK-OV-3 ovarian
[13] = test system: SK-MEL-28 melanoma
[14] = test system: SN12C renal
[15] = test system: ACHN renal
[16] = test system: MDA-MB-231 breast
[17] = test system: HS 578T breast
[18] = test system: HL-60(TB) leukemia
[19] = test system: CAKI-1 renal
[20] = test system: MOLT-4 leukemia
[21] = test system: PC-3 prostate
[22] = test system: HOP-92 NSCLC
[23] = test system: TK-10 renal
[24] = test system: MALME-3M melanoma
[25] = test system: NCI-H23 lung
[26] = test system: NCI-H522 lung
[27] = test system: HOP-62 NSCLC
[28] = test system: K-562 leukemia
[29] = test system: LOX IMVI melanoma
[30] = test system: KM12 colon
[31] = test system: T-47D breast
[32] = test system: OVCAR-5 ovarian
[33] = test system: SR leukemia
[34] = test system: OVCAR-8 ovarian
[35] = test system: A549 NSCLC
[36] = test system: DU-145 prostate
[37] = test system: SF-539 CNS
[38] = test system: SF-268 CNS
[39] = test system: 786-0 renal
[40] = test system: SNB-75 CNS
[41] = test system: BT-549 breast
[42] = test system: U251 CNS
[43] = test system: HCT-116 colon
[44] = test system: COLO 205 colon
[45] = test system: HCC-2998 colon
[46] = test system: EKVX NSCLC
[47] = test system: SF-295 CNS
[48] = test system: SW-620 colon
[49] = test system: HT29 colon
[50] = test system: IGROV1 ovarian
[51] = test system: NCI-H226 lung
[52] = test system: UO-31 renal
[53] = test system: MDA-MB-435
[54] = test system: A498 renal
[55] = test system: OVCAR-4 ovarian

`CCC1=Cc2cc(OC)ccc2OC12C=Cc1cc(OC)ccc1O2` (configuration not stated) was tested, and the GI50 [1] was 393 nM, the TGI [1] was greater than 100000 nM and the GI50 [2] was 366 nM. It also gave a GI50 [3] of 398 nM, a TGI [3] greater than 100000 nM and a GI50 [4] of 977 nM. The TGI [4] was greater than 100000 nM, the GI50 [5] was 1420 nM and the TGI [5] was greater than 100000 nM. It also gave a GI50 [6] of 421 nM, a TGI [6] greater than 100000 nM and a GI50 [7] of 303 nM. For the same molecule, the TGI [7] was 896 nM, the GI50 [8] was 550 nM and the TGI [8] was greater than 100000 nM. The GI50 [9] was 389 nM, the TGI [9] was greater than 100000 nM and the GI50 [10] was 553 nM. For the same molecule, the TGI [10] was greater than 100000 nM, the GI50 [11] was 450 nM and the TGI [11] was greater than 100000 nM. It also gave a GI50 [12] of 563 nM, a TGI [12] greater than 100000 nM and a GI50 [13] greater than 100000 nM. It also gave a TGI [13] greater than 100000 nM, a GI50 [14] of 796 nM and a TGI [14] greater than 100000 nM. For the same molecule, the GI50 [15] was 789 nM, the TGI [15] was greater than 100000 nM and the GI50 [16] was 964 nM. The TGI [16] was greater than 100000 nM, the GI50 [17] was 298 nM and the GI50 [18] was 331 nM. The TGI [18] was greater than 100000 nM, the GI50 [19] was 504 nM and the TGI [19] was greater than 100000 nM. The GI50 [20] was 500 nM, the TGI [20] was greater than 100000 nM and the GI50 [21] was 536 nM. The TGI [21] was greater than 100000 nM, the GI50 [22] was 964 nM and the TGI [22] was greater than 26700 nM. For the same molecule, the GI50 [23] was greater than 100000 nM, the TGI [23] was greater than 100000 nM and the GI50 [24] was 624 nM. For the same molecule, the TGI [24] was greater than 100000 nM, the GI50 [25] was 1070 nM and the TGI [25] was greater than 100000 nM. For the same molecule, the GI50 [26] was 283 nM, the TGI [26] was 936 nM and the GI50 [27] was 594 nM. The TGI [27] was greater than 100000 nM, the GI50 [28] was 379 nM and the TGI [28] was greater than 100000 nM. The GI50 [29] was 484 nM, the TGI [29] was greater than 100000 nM and the GI50 [30] was 423 nM. For the same molecule, the TGI [30] was greater than 100000 nM, the TGI [31] was greater than 100000 nM and the GI50 [32] was 936 nM. It also gave a TGI [32] greater than 100000 nM, a GI50 [33] of 327 nM and a TGI [33] greater than 100000 nM. It also gave a GI50 [34] of 596 nM, a TGI [34] greater than 100000 nM and a GI50 [35] of 809 nM. It also gave a TGI [35] greater than 100000 nM, a GI50 [36] of 481 nM and a TGI [36] greater than 100000 nM. For the same molecule, the GI50 [37] was 328 nM, the TGI [37] was 2150 nM and the GI50 [38] was 1040 nM. It also gave a TGI [38] greater than 100000 nM, a GI50 [39] of 676 nM and a TGI [39] greater than 100000 nM. The GI50 [40] was 218 nM, the TGI [40] was 720 nM and the GI50 [41] was 499 nM. It also gave a TGI [41] of 3810 nM, a GI50 [42] of 517 nM and a TGI [42] greater than 100000 nM. For the same molecule, the GI50 [43] was 518 nM, the TGI [43] was greater than 100000 nM and the GI50 [44] was 326 nM. For the same molecule, the TGI [44] was 898 nM, the GI50 [45] was 1710 nM and the TGI [45] was greater than 100000 nM. It also gave a GI50 [46] of 678 nM, a TGI [46] greater than 100000 nM and a GI50 [47] of 418 nM. The TGI [47] was greater than 100000 nM, the GI50 [48] was 385 nM and the TGI [48] was greater than 100000 nM. The GI50 [49] was 347 nM, the TGI [49] was 1270 nM and the GI50 [50] was 739 nM. It also gave a TGI [50] greater than 100000 nM, a GI50 [51] of 1060 nM and a TGI [51] greater than 100000 nM. The GI50 [52] was 1150 nM, the TGI [52] was greater than 100000 nM and the GI50 [53] was 228 nM. The TGI [53] was 503 nM, the GI50 [54] was 250 nM and the TGI [54] was 827 nM. The GI50 [55] was greater than 100000 nM and the TGI [55] was greater than 100000 nM.
